Data reported in patent EP1101821A1, “NOVEL PROTEIN AND ITS DNA” (Takeda Chemical Industries, Ltd., priority 1998, dated 2000).

Molecular target: recombinant human lung-derived phosphodiesterase V (Homo sapiens, UniProt O76074)
Experiment: Inhibitor screening system: [3H]cGMP SPA phosphodiesterase enzyme assay
Procedure: A 96-well microplate (OPTI Plate, Packard) received 10 µL of a buffer solution [0.5M Tris-HCl (pH7.5), 83 mM MgCl2, 17 mM EGTA], 10 µL of the recombinant human lung-derived phosphodiesterase V obtained in Example 3 (0.025 mg/ml), 65 µL of an ultrapure water, 5 µL of an inhibitor sample and 10 µL of [^3H]cGMP, and reacted at 30°C for 30 minutes. After completion of the reaction, 50 µL of a SPA beads solution [18 mg/ml Yttrium silicate beads, 18 mM ZnSO4] was added and allowed to stand at room temperature for about 20 minutes, and then subjected to a scintillation counting (Topcount, Packard).

Compound: Cc1c2c(c(-c3ccc(F)cc3)c3c4c(ccc13)OCO4)C(=O)NC2=O [Formula 1]
- IC50: 2.29 nM
